From a melting point compilation (Tetko et al.)

| melting point [°C] | SMILES |
| --- | --- |
| 129 to 132 | CCCOc1c(Cl)cc(C(=O)O)cc1Cl |
| -8 | C=CC(=O)N1CCOCC1 |
| 245 to 248 | CC(=O)Nc1ccc(N=Nc2ccc(N=Nc3ccc(/N=N/c4ccc(NC(C)=O)cc4)cc3)cc2)cc1 |
| 171 to 173 | NC(=O)Cc1ccc(F)cc1Cl |
| 85 | COc1cccc(N)c1C(=O)O |
| 172 | CNC1CCC2(C)C(CCC3C2CCC2(C)C3CCC2C(C)N(C)C)C1 (configuration not stated) |
| 141 | COc1cc2c(cc1OC)C(=O)C2 |
| 100 | OC12CCCCCC1c1ccccc12 (configuration not stated) |
| 219 | O=C(O)c1ccc(S)cc1 |
| 81 | Cc1cc(C#N)ccc1[N+](=O)[O-] |
| 87 to 91 | CC(C)(C)C(=O)Nc1ncccc1C=O |
| 114 | NC=NO |
| 158 to 160 | CSc1nc(O)ns1 |
| 99.5 to 102 | Nc1cccc(-c2ncccn2)c1 |
| -5.9 | CCCOC(=O)CCC(=O)OCCC |
| 130 | O=C1c2ccccc2CC2CCc3ccccc3N12 (configuration not stated) |
| 91 to 92 | O=[N+]([O-])c1ccc(CS(=O)(=O)Cl)cc1 |
| 119 | O=C(C(=S)Nc1ccccc1Cl)c1ccccc1 |
| 280 | O=C1/C(=N\Nc2cc(-c3ccccc3)n[nH]2)C(C(F)(F)F)=NN1c1ccccc1 |
| 85 to 86 | O=C=Nc1cc(F)cc2c1OCOC2 |
| 184 | O=C(c1cccc([N+](=O)[O-])c1)c1nn(-c2ccccc2)/c(=N\Nc2ccccc2)s1 |
| 235 | c1ccc(-c2nc(-c3ccccc3)nc(-c3ccccc3)n2)cc1 |
| 43 to 48 | OCC(O)CN1CCCC1 (configuration not stated) |
| 300 | Nc1oc2ccc(Cl)cc2c(=O)c1C=O |
| 18 | CC(=O)OCCOCCOC(C)=O |

| melting point [°C] | SMILES |
| --- | --- |
| 83 to 89 | COc1ccc2c(c1)CC2C(=O)O (configuration not stated) |
| 136 | COC(=O)c1ccc(O)c(O)c1 |
| 293 | CC(C)Cn1cnc2c(N)nc3ccccc3c21 |
| 103 | CC12CCC(C(Br)=C(Br)C1=O)C2(C)C (configuration not stated) |
| 234 | NCCCC(O)(P(=O)(O)O)P(=O)(O)O |
| 159 | NC(=O)N1C(=O)C=CC1=O |
| 32 to 39 | O=C=NS(=O)(=O)c1ccc(F)cc1 |
| 69 | COc1cc(C(=O)OCCCl)cc(OC)c1OC |
| 198 | O=[N+]([O-])c1ccc(Nc2ccccc2O)c([N+](=O)[O-])c1 |
| -26.8 | COc1ccccc1Cl |
| 99 to 103 | NNC(=O)c1ccccc1Oc1ccccc1 |
| 152 to 156 | N#Cc1cc(Br)cc(Br)c1N |
| 189 | COc1nc(C)nc(NC(=O)NS(=O)(=O)c2ccccc2OCCCl)n1 |
| 89 | N#Cc1ccc(N)c(F)c1 |
| 179 | COc1c2ccoc2cc2oc(COC3OC(CO)C(O)C(O)C3O)cc(=O)c12 (configuration not stated) |
| 64.5 | CC(C)COC(=O)c1ccc(N)cc1 |
| 200 to 201 | C/C(=N\O)c1cc(C(C)(C)C)c(O)c(C(C)(C)C)c1 |
| 79 to 81 | Cc1cc(C(F)(F)F)cc(NN)n1 |
| 36.5 | O=S(=O)(Cl)c1ccc(F)cc1 |
| 244 to 246 | CC(C)=NNC(=O)c1cc(C)on1 |
| 152 | COc1ccc(/C=C2\CN(S(=O)(=O)c3ccc(C)cc3)c3ccccc3N2S(=O)(=O)c2ccc(C)cc2)cc1 |
| 184 | Cc1n[nH]c(C)c1/C=C/c1ccccc1 |
| -60 | CCCCC(CC)CNCC(CC)CCCC (configuration not stated) |
| 48 to 52 | C=CCc1cc(C=O)c(O)c(OC)c1 |
| 178 to 179 | CCCc1ccc(NC(C)=O)cc1O |

| melting point [°C] | SMILES |
| --- | --- |
| 134 to 136 | CC(C)(C)c1ccc(Oc2ccc([N+](=O)[O-])cc2C=O)cc1 |
| 59 | O=C(Cc1ccccc1)SSC(=O)Cc1ccccc1 |
| 290 | CCOC(=O)c1cnc2cc(OCC(C)C)c(OCC(C)C)cc2c1O |
| 87.6 | CCCCCCCCCCCCCCCC(=O)Oc1ccc(N=Cc2cccnc2)cc1 |
| 105 | NC(=O)N1CCCCC1 |
| 150 | CC(C)C1=CCC2C(=C1)CCC1C(C)(C(=O)O)CCCC21C (configuration not stated) |
| 300 | O=C(O)[C@@H]1Cc2ccccc2CN1 |
| 134 to 138 | OC(Cn1ccnc1)c1ccc(Cl)cc1Cl (configuration not stated) |
| 176 | O=C(C1=NOC2C(=O)N(c3ccc(Br)cc3)C(=O)C12)c1ccco1 (configuration not stated) |
| 243 to 248 | Cc1cc(Sc2ccc(C(=O)O)cc2[N+](=O)[O-])c(C)cc1Cl |
| 91 | CN(C)c1ccc(CCC2CCc3ccccc3N2N=O)cc1 (configuration not stated) |
| 235 to 236 | Nc1c(Br)cc(Br)cc1C(=O)O |
| 175 | Cc1nc2ccccc2[nH]c(=O)c1=NNc1ccc(Cl)cc1 |
| 209 to 213 | Nc1ccc(Cl)cc1C(=O)O |
| 169 | O=C(O)c1cccc(Br)c1F |
| 113 | O=C(CCCCl)c1ccc(O)cc1 |
| 107 to 108 | CCCC1C2C(=O)N(c3ccccc3)C(=O)C2ON1c1ccccc1 (configuration not stated) |
| 43 | Cc1ccc2ocnc2c1 |
| 97 | COc1ccc(C=CC(=O)c2ccc(OC)cc2OC)cc1 |
| 81 | N#Cc1c(F)cc(Br)cc1F |
| 228 | CCCc1ccccc1/C=N/Nc1ccc([N+](=O)[O-])cc1[N+](=O)[O-] |
| 53 | COc1ccc(C=O)c(C)c1C |
| 86 to 88 | NNC(=O)c1cc(OCC(F)(F)F)ccc1OCC(F)(F)F |
| 164 | O=C(CNc1cccc(NCC(=O)c2ccccc2)c1)c1ccccc1 |
| 71 | O=[N+]([O-])c1ccc(Cc2ccncc2)cc1 |

| melting point [°C] | SMILES |
| --- | --- |
| 91 to 93 | O=Cc1ccc(-c2ccc(C(F)(F)F)cn2)cc1 |
| 181 | Nc1cc(Cl)c(Cl)cc1[N+](=O)[O-] |
| 161 | CCOC(=O)c1cc2cc3ccccc3cc2cc(C(=O)OCC)c1=O |
| 147 to 149 | CC1(C)OC(=O)C(=C2CCCCCN2)C(=O)O1 |
| -22 | C=C(C)CCCCCCCCCCC |
| 94 to 96 | CCOc1ncnc2c1cnn2-c1ccccc1 |
| 90 | O=NN(CCCl)C(=O)NC1CCCCC1 |
| 188 to 190 | CSC(S)=Nc1ccc(N)cc1 |
| 120 to 125 | O=S(=O)(NO)c1ccccc1 |
| 49 to 51 | OCc1ccc(-c2ccccn2)cc1 |
| 235 to 237 | O=C(Nc1ccccc1Br)Nc1ccccc1Br |
| 46 to 48 | Ic1ccccc1CN1CCOCC1 |
| 238 | O=C(c1ccc(-c2ccccc2)cc1)c1ccc(-c2ccccc2)cc1 |
| 181 | CC(C)(c1cc(Br)c(O)c(Br)c1)c1cc(Br)c(O)c(Br)c1 |
| 255 | CC(/C=N/NC(N)=O)=N\NC(N)=O |
| 300 | CC(C)(C)C(N)C(=O)O (racemic) |
| 136 | O=Cc1cccc2c([N+](=O)[O-])cccc12 |
| 102 | O=C1COc2ccccc21 |
| 205 to 206 | c1cnc2c(SSc3cccc4cccnc34)cccc2c1 |
| 150 to 160 | O=C(O)C(=Cc1cccc([N+](=O)[O-])c1)c1cccc([N+](=O)[O-])c1 |
| 138 | c1ccc(-c2nc3ccccc3nc2-c2cccc3ccccc23)cc1 |
| 210 | CC(C)(C)C1=NNC(=O)C1 |
| 83 to 86 | N#CCN=C(c1ccccc1)c1ccccc1 |
| 92 to 94 | O=C(CS)Nc1ccc(F)cc1 |
| 116 | Cc1cccc2c1C(=O)OC2=O |

| melting point [°C] | SMILES |
| --- | --- |
| 190 | CC(CCc1ccccc1)NCC(O)c1ccc(O)c(C(N)=O)c1 (configuration not stated) |
| 167 to 170 | NNC(=S)Nc1ccc(OCc2ccccc2)cc1 |
| -49.7 | C=Cc1ccc(CC)cc1 |
| 51 to 54 | CC(C)(C)OC(=O)NCc1ccc(Br)s1 |
| 214 | CCOC(=O)c1cc(C)[nH]c(=S)c1C#N |
| 119 | CCOc1ccc(C(=S)N2CCOCC2)cc1OC |
| 109 to 116 | CCCCCCCCCCCCCCOc1ccccc1NC(=O)c1cc(Oc2ccc([N+](=O)[O-])cc2CN(C(=O)Cl)C(C)C)c2ccccc2c1O |
| 102 | COc1ccc(C#N)c2ccccc12 |
| 226 | c1ccc2c(c1)ccc1nc3c(ccc4ccccc43)cc12 |
| -18.5 | C[Si](C)(C)C=C[Si](C)(C)C |
| 187 | CCOC(=O)c1sc2sc(C(=O)OCC)c(C)c2c1C |
| 167 to 169 | Cn1ccc2cc([N+](=O)[O-])ccc21 |
| 73 to 74 | CCNC(=O)CC#N |
| 82 | NNc1cc(C(F)(F)F)cc(C(F)(F)F)c1 |
| 233 to 234 | O=C(O)c1cn2ccsc2n1 |
| 202 to 206 | NC(=O)c1cc(Cl)nc(Cl)c1 |
| 184 to 185 | Cc1cc(C2(c3ccc(O)c(C)c3)CCCCC2)ccc1O |
| 265 to 267 | c1cc(-c2nnn[nH]2)ccn1 |
| 82 to 83 | Cc1nc(N)ccc1Br |
| 164 | O=C(C(=O)c1ccco1)c1ccco1 |
| 0.7 | CC1=C(C)C2(C)C(C)=C(C)C12C (configuration not stated) |
| 21 to 23 | O=C1CCCCCC1c1ccccc1 (configuration not stated) |
| 97 | O=C1Cc2ccc3ccccc3c21 |

| SMILES | melting point [°C] |
| --- | --- |
| Oc1cc(Cl)c(Cl)c(Cl)c1 | 101 |
| O=[N+]([O-])c1ccc(O)c([N+](=O)[O-])c1 | 116 |
| FC(F)=C(F)F | -142 |
| FC(F)C(F)C(F)(F)F (configuration not stated) | -156 |
| NC(CCP(=O)(O)O)C(=O)O (racemic) | 225 to 228 |
| CN1CCN(C(=O)OC2c3nccnc3C(=O)N2c2ccc(Cl)cn2)CC1 (configuration not stated) | 178 |
| C=C(C)C(=C)C | -76 |
| CC(C)NC(=O)C(Br)C(C)(C)C (configuration not stated) | 128 to 130 |
| CC1(O)CNC(=O)C1 (configuration not stated) | 140 |
